System: rat hippocampal neurons
Assay: Cell death assay (TUNEL) after axonal Aβ1-42/Aβ42 treatment in microfluidic chambers
Type: cell-based
Settings: Aβ oligomers 36 hours, nelfinavir in the last 24 hours, 10/15 μM nelfinavir
Experimental: Hippocampi were dissected from embryonic day (E) 16-18 rat embryos obtained from pregnant Sprague-Dawley dams (Envigo). All animal procedures were approved by the Institutional Animal Care and Use Committee at Columbia University. Cell dissociation was performed using TripLE Express. Neurons (50,000-60,000 per microfluidic chamber) were plated on 0.1 mg ml^-1 poly-D-lysine (Millipore Sigma) and 2 μg ml^-1 laminin (Bio-Techne) coated substrates and grown in Neurobasal supplemented with 10% fetal bovine serum, 2 mM L-glutamine, 1 mM sodium pyruvate, and antibiotics (50 U ml^-1 penicillin-streptomycin). Tripartite microfluidic chambers were produced with Dow Corning Sylgard 184 Silicone Encapsulant Clear Kit (10:1 mix ratio; Ellsworth Adhesives) cured at […] for at least 4 hours following published protocols (Park et al. 2006; Desai et al. 2009). Chamber design incorporated two sets of 200-μm-long microgroove barriers to exclude crossing of cell bodies and dendrites (Taylor et al. 2005; […] et al. 2009). After 24 hours, medium was changed to Neurobasal containing 1×B27 and 2 mM L-glutamine. Subsequent medium changes (half volumes) were performed at DIV4 and thereafter every 3-5 days. To prevent glial cell proliferation, medium changes included 5-flurodeoxyuridine and uridine (final concentration […]; Millipore Sigma) after DIV4. […]

Cc1c(O)cccc1C(=O)N[C@@H](CSc1ccccc1)[C@H](O)CN1C[C@H]2CCCC[C@H]2C[C@H]1C(=O)NC(C)(C)C [nelfinavir]
retrograde degeneration response (TUNEL) triggered by local Aβ1-42/Aβ42 stimuli: completely rescued
